Source: a melting point compilation (Tetko et al.; mined from patent text by program, amines drawn as free bases though some values may be those of a salt)

SMILES	melting point [°C]
COC1=C(OC)C(=O)C2=C(CC(CCCCCCCC(=O)O)(c3ccccc3)C2)C1=O	63 to 66
Cc1cc(NSc2ccccc2[N+](=O)[O-])ccc1Oc1ncc(Cl)cn1	74 to 85
OC(c1ccccc1)(c1ccccc1)C1CCN(CCCOc2ccccc2)CC1	87 to 88
CCCCNC1NC(=O)N(c2ccc(O)cc2)C(=O)N1	263 to 265
CN1CCC(OC2c3ccccc3CCn3c2nc(-c2ccccc2)c3C(=O)O)CC1 (stereo not given)	185
COc1ccc(NC(=O)OC(C)(C)C)cc1	93 to 94
CCCCOc1c(CN2C(=O)c3ccccc3C2=O)n(CC2CC2)c(=O)c2ccc(OCc3ccccc3)cc12	127 to 128
C=CCOC(=O)c1c(C)c(OC)cc(O)c1C=O	73 to 74
CSc1ccc(CCl)cc1C(F)(F)F	65 to 66
COc1ccc(C(C)(c2ccc(OC)cc2)c2ccc(N(c3ccc(C)cc3)c3ccc(C)cc3)cc2)cc1	147 to 148
N#Cc1cc(=O)n2nc(S(=O)(=O)Cc3ccccc3)sc2n1	214 to 217
O=C(OCC1CCCN1)N1CCN(c2cc(N3CCCC3)nc(N3CCCC3)n2)CC1 (single isomer, unassigned; (+))	137 to 138
CON(C)S(=O)(=O)c1ccccc1N	50
COc1ccccc1-c1ccc2cnc(Nc3ccc4c(c3)N3CCC4CC3)nn12	89 to 95
CCCCN(Cc1ccc(-c2ccccc2-c2nnn[nH]2)cc1)c1nc(SC)ncc1C(=O)OCC	161 to 163
CC(C)OC12NC(=O)C(C)(C(C)C)N1C(=O)c1cccnc12 (stereo not given)	158 to 160
COc1ccccc1NC(=O)Nc1ccc(CC(=O)O)cc1OC	182 to 185
O=C(c1ccncc1)N1CCC(=C2c3ccccc3CCn3ccnc32)CC1	207 to 209
CC(=O)Nc1ccc(C(F)(F)F)cc1-c1ccc(OC(C)C(O)CCc2cccnc2)cc1 (stereo not given)	44 to 47
CCCNC(=O)C(=CN(C)C)C(=O)c1ccccc1Cl	76 to 78
CCOC(=O)C(C)Oc1ncn(-c2cccc(F)c2)n1 (stereo not given)	35 to 37
O=C(Cc1c(-c2ccccc2)c2cc(O)c(Cl)cc2oc1=O)Nc1ccc(F)cc1C(F)(F)F	240 to 243
Nc1cc(S(=O)c2ccc(-c3ccccc3)cc2)ccc1Cl (stereo not given)	134 to 137
O=C(OCC(O)c1ccccc1)c1ccc(-c2ccc(OCCCCCCO)cc2)cc1 (stereo not given)	148 to 150
CC(=O)c1cn(Cc2ccc(F)cc2)c(=O)n(Cc2ccc(F)cc2)c1=O	134 to 135

SMILES	melting point [°C]
CC(C)(c1ccc(Oc2cccc([N+](=O)[O-])c2)cc1)c1ccc(Oc2cccc([N+](=O)[O-])c2)cc1	111 to 113
NC(=S)N1CCN(c2ccc(SC(CCc3ccc(Cl)cc3)Cn3ccnc3)cc2)CC1 (stereo not given)	130 to 133
CCCCOC(=Cn1ccnc1)c1ccc(Cl)cc1Cl	205 to 207
O=C(CCC(CSc1ccc2ccccc2c1)C(=O)O)OCc1ccccc1 (stereo not given)	94 to 95
CC(C)(C)[C@H]1CC[C@H](CC2=C(Cl)C(=O)c3ccccc3C2=O)CC1	154 to 156
Cc1ccsc1-c1ccc(C(C)(N)C(=O)O)cc1 (stereo not given)	> 250
Cc1cc2c(c(C(C)(C)C)c1)OC(=O)C2c1ccc2c(c1)c1ccccc1n2C (stereo not given)	84 to 90
COc1cc(Nc2c(C#N)cnc3cc(Br)c(OC)cc23)c(Cl)cc1Cl	> 250
COC(=O)c1c(Cc2ccc(S(C)(=O)=O)nc2)c(=O)c2ccc(C)nc2n1-c1ccccc1	217 to 218
CCOCN1N=NC(=S)C1C (stereo not given)	137 to 138
CCC1COc2c(Cc3ccc(C(C)C)cc3)c(C)c(NC(=O)CC(C)(C)C)c(C)c21 (stereo not given)	156 to 157
CN1CCC(C2c3cccc4c3N(CC4)c3ccccc3N2C)CC1 (stereo not given)	138 to 139
COCCCc1ccc(CNC(=O)[C@@H](COC)NC(C)=O)cc1	105 to 107
N#Cc1ccc(-c2cccc(-c3nc4cc(C#N)ccc4[nH]3)c2)nc1	281 to 282
COc1cc(OC)nc(C(O)(C(=O)NS(C)(=O)=O)c2ccccc2)n1 (stereo not given)	94 to 96
O=C1c2ccccc2CCC1Cc1ccccc1 (stereo not given)	50 to 51
O=C1C=C(c2ccc(Cl)c(Cl)c2)C(=O)O1	112
O=C(Sc1ccc(O)cc1)c1ccc(CSc2ccc(O)cc2)cc1	202 to 209
CC(C)c1cccc(C(C)C)c1NC(=O)C(c1ccccc1)n1nnc(C(c2ccccc2)c2ccccc2)n1 (stereo not given)	180 to 183
Fc1ccc2c(c1)nc(/C=C/c1ccccc1)n2-c1ccccn1	134 to 135
O=C(O)Cc1cc(Br)c(S(=O)(=O)c2ccc(O)c(I)c2)c(Br)c1	174 to 176
CCOC(=O)C(CC)C(O)(c1ccccc1)c1ccc(O)cc1 (stereo not given)	46 to 53
OC[C@H](O)[C@H](O)COc1nc(N2CCNCC2)nc2ccccc12 (racemic)	168 to 172
CCOc1cc(CO)cc(OCc2nc(-c3ccccc3)oc2C)c1	103 to 104
COc1cc(CCNC(=O)N(C)O)cc(OC)c1	121 to 123

SMILES	melting point [°C]
N#Cc1cnc2cnc(F)cc2c1Oc1ccc(Cl)cc1F	186 to 188
Cc1cc(NC2=NCCN2C)n(C)n1	128 to 130
CCOC(=O)c1cc(C=Cc2ccc(O)c(OC)c2)n[nH]1	99 to 101
OCCNc1nc(N2CCNCC2)nc2c1SCCC2	116 to 120
CN(c1cccc2cc(-c3nccs3)[nH]c12)S(=O)(=O)c1ccsc1CSCC(=O)O	193
CC(C)OC(=O)Nc1ccc(N)c([N+](=O)[O-])c1	173 to 175
OCc1ccc(/C=C/c2ccc(OC(F)(F)F)cc2)cc1	161 to 163
NC(=O)CON=c1c2nccc3cccc(c32)n2cccc12	252
CONS(=O)(=O)c1ccc(Cl)c([N+](=O)[O-])c1	69.5 to 71
CCC1(CC)Oc2cc(OC)c(C#N)cc2[C@@H](N2CCCC2=O)[C@@H]1O (relative stereo)	193 to 195
CCCS(=O)(=O)c1ccccc1S(=O)(=O)NC(=O)Nc1nc(Cl)cc(OCC)n1	220 to 222
COc1c(NOCc2ccc(C(C)(C)C)cc2)ccnc1C	113
CC(C)(CO)CCCC(O)CCCC(O)CCCC(C)(C)CO (stereo not given)	85 to 86
CCC1c2ncn(C)c2CCN1C(=S)NC(C)C (stereo not given)	186
Cc1cc(Cl)cc(C(=O)C(=O)O)c1NC(=O)c1cc(Br)nn1-c1ncccc1Cl	139 to 142
OCc1cc(F)c(Cl)nc1Cl	65 to 67
O=C(Nc1ccc2[nH]c(=O)oc2c1)C(=O)N1CCC(Cc2ccccc2)CC1	190 to 193
Nc1c(Cl)cc(C(O)CNCCCCCOCCc2cc3ccccc3o2)cc1Cl (stereo not given)	49 to 52
Cc1ccc(Cn2nc(Br)c([N+](=O)[O-])c2NCc2ccccc2)cc1	108
Cc1cc2c(c(C)c1NCc1ccccc1)C(c1ccc(C(C)C)cc1)CO2 (stereo not given)	82 to 83
CC(C)(C)OC(=O)NCC(=O)OCCCNc1ccc(O)c2c1C(=O)c1c(O)cccc1C2=O	152
N#Cc1ccc(NCc2cc3c(cc2O)CCCO3)cc1	162 to 164
CC(=O)c1ccc2c(c1)C(C(=O)Nc1cccc(C(=O)Nc3ccc(Br)cc3)c1)C(=O)N2C (stereo not given)	234 to 236
CCOc1ccc(CCC=[N+]([O-])C(C)(C)C)cc1	54 to 57
Cc1cc(CNC(=O)c2cc(-c3ccc(C(C)(C)C)cc3)nn2CCN2CCOCC2)ccc1OC(C)(C)C(=O)O	140

SMILES	melting point [°C]
Cc1cc(C)c(Nc2nc(C)ncc2S(=O)(=O)c2ccc(-c3ccccn3)cc2)c(C)c1	201 to 203
COC(=O)C=Cc1cnc(Cl)cc1NCc1ccc(OC)c(Cl)c1	170 to 171
COc1ccc(N2C(=O)C(=C3CCCN3C)c3ccccc32)cc1	90 to 93
O=c1c2c(O)cc(O)cc2ncn1-c1ccc(O)cc1	240 to 245
COc1ccc(CNc2cc(Cl)ncc2C=O)cc1Cl	146 to 148
Cc1cc(C)c(C2C(=O)N3CCCCN3C2=O)c(C)c1	247 to 248
CCC(Oc1ccc2ncccc2c1)C(=O)O (stereo not given)	78 to 80
CCCNC(=O)c1ccc(F)c2c1CC(N(CCCc1c[nH]c3ccc(F)cc13)C1CCC1)CO2 (stereo not given)	67
CCCCCCCCc1cc2c(cc1CCCCCCCC)c1ccsc1c1sccc21	62.2 to 63.1
CCCCC#CCC#CCC#CCCCCCCC(=O)O	48.5 to 49.5
CCCC(COc1noc2ccc(Cl)cc12)NC=O (stereo not given)	107 to 108
O=C(Nc1ccc(-n2nc(C3CC3)cc2C2CC2)cc1)c1ccccc1	133 to 138
COC(=O)C(C)Oc1cccc(C=O)c1 (stereo not given)	50.7
CCCc1nc2c(N)nc(C)c(C)c2n1NC1CCCCC1	177 to 179
COC1(N)C=CC(C(=O)c2cnc(Nc3ccccc3)s2)=CC1 (stereo not given)	222
O=c1ccn(-c2cccc(C(F)(F)F)c2)nc1-c1nncn1-c1ccccc1	103 to 104
CC(C)(C)C1NC(C(=O)O)CS1 (mixture of isomers)	184
CN1C(=O)C2(CCN(CCCC(O)c3ccc(F)cc3)CC2)c2ccccc21 (stereo not given)	126 to 128
CN1CCCC[C@@H]1Cc1c(-c2ccccc2)[nH]c2ccccc12	135
O=C(NCc1ccc(Cl)cc1)c1cnc2c(F)cc(C#CCCO)cc2c1O	253 to 255
FC(F)(F)c1cccc(OCc2ccc3ccccc3n2)c1	77 to 78
COc1cc(CCNC(C)=O)c(C(=O)Cc2cc(OC)c(OC)cc2[N+](=O)[O-])cc1OC	142 to 144
C[C@H](CSC(=O)c1ccccc1)C(=O)N1CSC[C@H]1C(=O)OCOC(=O)C(C)(C)C	69 to 69.5
CC(F)(C(=O)O)c1ccc(OS(=O)(=O)C(F)(F)F)cc1 (stereo not given)	91 to 94
O=c1c2c(Cc3ccc(OC(F)(F)F)cc3)n[nH]c2c2cccnc2n1-c1ccccc1	216 to 218
